Laboratory results published in EP4741420A1, “PHARMACEUTICAL COMPOSITION FOR PREVENTING OR TREATING OBESITY COMPRISING GLP ANALOGUE AS ACTIVE INGREDIENT” (priority 2023, dated 2025).
Peptide text beside a SMILES is read from it.

Key:
GLP-2 = biological target: T1, GLP-2 (Homo sapiens, UniProt O95838); assay: GLP-2 activity, cell-based cAMP assay (same method as Example 2); settings: Example 5, relative to GLP-2
T1 sequence (O95838 1-553): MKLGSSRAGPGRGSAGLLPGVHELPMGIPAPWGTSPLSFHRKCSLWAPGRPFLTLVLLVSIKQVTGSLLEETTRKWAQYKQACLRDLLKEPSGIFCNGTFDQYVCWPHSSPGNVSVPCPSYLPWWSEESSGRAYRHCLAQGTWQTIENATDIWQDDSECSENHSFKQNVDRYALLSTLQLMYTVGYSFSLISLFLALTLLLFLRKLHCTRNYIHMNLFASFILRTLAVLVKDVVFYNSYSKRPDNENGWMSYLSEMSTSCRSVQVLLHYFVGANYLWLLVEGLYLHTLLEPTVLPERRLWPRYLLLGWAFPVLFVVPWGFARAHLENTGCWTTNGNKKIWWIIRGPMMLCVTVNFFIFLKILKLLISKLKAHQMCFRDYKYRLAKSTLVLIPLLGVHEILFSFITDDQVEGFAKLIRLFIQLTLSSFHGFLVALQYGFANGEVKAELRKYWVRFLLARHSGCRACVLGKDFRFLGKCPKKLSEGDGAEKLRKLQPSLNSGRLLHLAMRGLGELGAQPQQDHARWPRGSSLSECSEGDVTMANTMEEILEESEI

[1] = system: diet-induced obesity (DIO) mouse model; assay: DIO mouse model QD: hepatic triglyceride measurement (Example 8-3); assay type: in vivo; settings: liver tissue, DIO mice, QD (once daily), 45 nmol/kg/dose
Experimental: To measure hepatic triglyceride levels, triglycerides in liver tissue excised on the necropsy day were analyzed using a measurement kit (Biomax, Cat no. BM-TGR-100).

[2] = Mouse PK after single subcutaneous administration, LC-MS/MS of plasma; assay type: in vivo, mice; settings: male, C57BL/6N, mouse, in vivo, sc
Experimental: Each of the experimental groups and the control was subcutaneously administered once to the dorsal area of a total of 12 mice using a 1 mL syringe equipped with a 26-gauge needle at a dose of 0.2 mg/5 mL/kg. After drug administration, approximately 0.04 to 0.05 mL of blood was collected per individual at the time scheduled for the orbital vein (4 mice were alternately sampled), and the blood collection times were 1, 2, 4, 8, 24 ,32 ,48, 56, 72, 96, and 120 hours. All plasma samples were analyzed using a self-developed LC-MS/MS assay. Pharmacokinetic analysis of blood drugs was performed using non-compartmental analysis, and analysis of pharmacokinetic parameters was performed using Phoenix WinNolin 64 (Version. 8.3.5 340).

## CCCCCCCCCCCCCCCC(=O)N[C@@H](CCC(=O)NCCCC[C@H](NC(=O)[C@H](CCCCN)NC(=O)[C@H](CC(=O)O)NC(=O)[C@@H](NC(=O)[C@@H](NC(=O)[C@H](CCCCN)NC(=O)[C@@H](NC(=O)[C@H](CCC(N)=O)NC(=O)[C@@H](NC(=O)[C@H](CC(C)C)NC(=O)[C@H](Cc1c[nH]c2ccccc12)NC(=O)[C@H](CC(N)=O)NC(=O)[C@@H](NC(=O)[C@H](Cc1ccccc1)NC(=O)[C@H](CC(=O)O)NC(=O)[C@H](CCCNC(=N)N)NC(=O)[C@H](C)NC(=O)[C@H](C)NC(=O)[C@H](CC(C)C)NC(=O)[C@H](C)NC(=O)[C@H](CC(=O)O)NC(=O)[C@H](CC(C)C)NC(=O)[C@H](Cc1ccc(O)cc1)NC(=O)[C@@H](NC(=O)[C@H](CO)NC(=O)[C@H](CC(C)C)NC(=O)[C@H](CC(=O)O)NC(=O)[C@H](CO)NC(=O)[C@@H](NC(=O)[C@H](Cc1ccccc1)NC(=O)[C@@H](NC(=O)CNC(=O)[C@H](CCC(=O)O)NC(=O)CNC(=O)[C@@H](N)Cc1c[nH]cn1)[C@@H](C)O)[C@@H](C)O)[C@@H](C)O)[C@@H](C)CC)[C@@H](C)CC)[C@@H](C)O)[C@@H](C)CC)[C@@H](C)O)C(=O)O)C(=O)O [HU020K2FA] (HELM PEPTIDE1{H.G.E.G.T.F.T.S.D.L.S.T.Y.L.D.A.L.A.A.R.D.F.I.N.W.L.I.Q.T.K.I.T.D.K.K}|PEPTIDE2{[CCCCCCCCCCCCCCCC(=O)[*:2]].[gGlu]}$PEPTIDE1,PEPTIDE2,35:R3-2:R2$$$V2.0; N-terminus and C-terminus assumed)
GLP-2
  GLP-2 activity Compared to GLP-2: ~ 0.02%
[1]
  Liver TG levels (nmol/µ): 0.81±0.11 nmol/µ
[2]
  Tmax: 8 h
  half-life: 6.6 h
